In article PMC5663395, “Chemical Validation of Methionyl-tRNA Synthetase as a Druggable Target in Leishmania donovani” (ACS Infectious Diseases, 2017):
Read-outs that look alike come from different tables or passages of the source.

Assays:
[1] = biological target: LdMetRS (Leishmania donovani, UniProt A0A3Q8IBX2); assay: LdMetRS biochemical enzyme assay (BIOMOL Green); settings: read-out: LdMetRS IC50
Protocol: LdMetRS Assay Development and Kinetic Parameter Determinations
Activity of the LdMetRS enzyme was determined by monitoring levels of pyrophosphate released during the first step of the enzymatic reaction. The pyrophosphate formed was converted to two inorganic phosphate molecules using a pyrophosphatase enzyme and levels of the resulting phosphate molecules measured using the BIOMOL® Green reagent (Enzo Life Sciences) 2.
Following optimization of the assay buffer and determination of the enzyme linearity, 384-well plate based assays were carried out at room temperature in a 50 μl reaction volume containing 30 mM Tris, pH 8.0, 140 mM NaCl, 30 mM KCl, 40 mM MgCl2, 0.01% (v/v) Brij-35, 1 mM DTT, 1 U/ml pyrophosphatase, 50 nM recombinant LdMetRS, and varying concentrations of substrates. Michaelis constants for the ATP and methionine substrates were determined in an end point assay using the above buffer and enzyme conditions. Data were fitted to the modified Michaelis-Menten equations […]
Equation 1 (Hill equation): […]
Equation 2 (High substrate inhibition Michaelis-Menten equation): […]
LdMetRS Inhibitor Studies
All test compounds were solubilized in 100% DMSO to a concentration of 10 mM. To generate IC50 data for the compounds, assay ready plates containing 10-point inhibitor curves (half-log serial dilutions) were prepared using an Echo® 550 (Labcyte).
Following preparation of the inhibitor curves, assays were carried out at room temperature in clear, flat bottom, polystyrene, 384-well plates (Greiner). Each assay was performed in a 50 μl reaction volume containing 30 mM Tris; pH 8.0, 140 mM NaCl, 30 mM KCl, 40 mM MgCl2, 0.01% (v/v) Brij-35, 1 mM DTT, 1 U/ml pyrophosphatase, 50 nM recombinant LdMetRS, 50 µM methionine and 100 µM […]
Assays were performed by adding 25 μl buffer with enzyme to assay plates (with buffer only added to ‘no enzyme’ control wells) before the reaction was initiated with the addition of a 25 μl mix containing methionine, ATP and pyrophosphatase to all wells. Following a 120 min reaction at room temperature the assay was stopped with the addition of 50 μl BIOMOL® Green. The BIOMOL® Green signal was allowed to develop for 30 min before the absorbance of each well was read at 650 nm using an EnVision multilabel plate reader (PerkinElmer Life Sciences). All liquid dispensing steps were carried out using a Thermo Scientific WellMate dispenser (Matrix).
ActivityBase from IDBS (version 8.0.5.4) was used for data processing and analysis. All IC50 curve fitting was undertaken using ActivityBase XE (version 7.7.1) from IDBS. A four-parameter logistic dose-response curve was utilized with prefit used for all four parameters.
For DDD806905 Kiapp determinations, data fitting to the Morrison equation (equation 3) was carried out using GraFit v6.0 (Erithacus Software). It should be noted that data for fitting to the Morrison equation was normalised to a ‘100 µM DDD806905’ control rather than a ‘no enzyme’ control as […]
Equation 3 (Morrison equation): […]
vi = K1 −−([ ] [ ]ET+IT+Ki)−([ ] [ ]ET+IT+i)[ ] [ ]TIE4T
LdMetRS Mode of Inhibition Studies
To establish the mode of inhibition of DDD806905, data sets (generated using the BIOMOL® Green assay platform previously described) were collected by varying both the inhibitor and substrate concentrations. Using GraFit v6.0 (Erithacus Software) each data set was individually fitted to the Michaelis-Menten equation or the modified high substrate inhibition Michaelis-Menten equation described above (equation 2), and the resulting Lineweaver-Burk plots were examined for diagnostic […]
Data sets were then globally fitted to the appropriate model (with equations 4 and 5 used for […]
If more than one model appeared possible, then data were fitted to both and examined for significance using the F-test function in GraFit.

[2] = tested on: L. donovani promastigotes; assay: Leishmania promastigote viability assay; format: cell-based, Leishmania donovani; settings: Supplementary Table 1; read-out: Leishmania Promastigote EC50
Protocol: After suitable sample preparation, the
In vivo Leishmaniasis Animal Model […]
administered twice daily over the same interval.
Parasite load is expressed in Leishman-
Knock-out and overexpressor generation
Leishmania Promastigote Assay
Serum shift experiments were […]
(§1) carried out as described above using 5%, 10% and 20% FBS in the media. To examine the effect of the methionine concentration on the potency of DDD806905 parasites were grown in the presence of drug and in the presence (or absence) of 20-fold excess methionine (0.3 g/l). IC50 curve fitting was undertaken in GraFit version 6.0 (Erithacus Software) using a four-parameter logistic dose-response curve (equation 6), with s the slope.
(§2) Leishmania Axenic Amastigote Assay
(§3) The Leishmania axenic amastigote assay was performed using the method published in Nühs et al 15.
(§4) Leishmania Intracellular Amastigote Assay
(§5) The intramacrophage Leishmania assay was performed using a modified version of the method described in De Rycker et al 16. […]
(§6) amphotericin B was included. Controls were as follows: columns 11 and 12: DMSO, columns 23 and 24: amphotericin B (final concentration 2 µM). 350 nl of compound was pre-dispensed into 384-well sterile intermediary plates. To the intermediary plates, 35 µl of THP-1 media was added and plates were shaken for >5 min to ensure complete mixing. THP-1 cells (8,000 per well, 50 µl) were plated into black clear-bottom 384-well plates (Corning) in presence of 20 nM phorbol 12-myristate 13-

[3] = tested on: L. donovani axenic amastigotes; assay: Leishmania axenic amastigote viability assay; format: cell-based, Leishmania donovani; settings: read-out: Leishmania Axenic Amastigote EC50
Protocol: as §1, §2, §3, §4, §5
as §6, with “13- […]” for “13-”
in a humidified incubator for 75 h. The cells were then washed with 450 µl sterile phosphate buffered saline (PBS) supplemented with 1 mM CaCl2, 0.5 mM MgCl2, 0.1% (w/v) bovine serum albumin (PBS-A) and amastigotes were added to all wells at a multiplicity of infection of 5 (40,000 amastigotes per well). After 40 min at room temperature, plates were returned to the incubator.
Amastigotes were incubated in the presence of THP-1 macrophages for 16 h. Any remaining extracellular amastigotes were subsequently removed by washing with PBS-A followed by addition of 25 µl of the compound pre-dilutions using an Ipette-pro pipetting station (FluidX). The final dilution of each compound was 200-fold. Plates were incubated for 96 h and then washed (250 µl PBS-A) and fixed (4 % (v/v) formaldehyde-PBS, 30 min, room temperature). After fixation, the wells were washed with 250 µl PBS, stained (10 µg/ml DAPI, 0.4 µg/mL HCS Cellmask Deep Red in PBS + 0.1% (v/v) Triton X-100, 30 min, room temperature) and washed with 250 µl PBS. Finally, PBS + 0.05% (v/v) thimerosal was added to the wells, the plates were sealed and imaged on a high-content microscope (GE IN Cell 2000) using a 10x objective. Image analysis was carried out with GE IN Cell Analyzer 1000 Workstation using the “Multi Target Analysis” module. For each well, i) THP-1 cell count (cytotoxicity readout) and ii) average number of amastigotes per cell (potency readout) were […]

[4] = tested on: THP-1 lysosomes; assay: Lysosomotropism assay (LysoTracker Red competition); format: cell-based, human; settings: PMA-differentiated THP-1 cells, 30 min
Protocol: calculated, both in terms of pEC50 values. MIC (minimum inhibitory concentration) values are defined as the lowest concentration tested at which maximal inhibition is reached.
THP-1 cells were differentiated in 96-well plates with PMA as described above. Following differentiation the cells were treated for 30 min with dose-response curves of test compounds in presence of 100 nM LysoTracker Red DND-99 (Thermo Fisher) and 5 µg/ml Hoechst 33342. Next cells were washed 3 times with Hanks Buffered Saline Solution (Gibco) and imaged on a Perkin Elmer Operetta system. An image analysis algorithm to measure mean Lysotracker Red DND-99 intensity per cell was developed in Columbus. Mean Intensity was normalised using a no dye control (100% effect) and DMSO treated wells stained with Lysotracker Red DND-99 (0% effect control). Dose-response curves were fitted for the test compounds using a four-parameter equation (equation 5 above) and constrained to 0 and 100% where necessary.
To measure the pKa of DDD806905, a fast UV-metric method was performed using a Sirius T3 instrument (Sirius Analytical, U.K.). The calculation of the pKa was determined using the Sirius T3 refine software (Sirius Analytical, U.K.). In brief, the UV-metric pKa method is based on measuring pH during an acid-base titration and monitoring UV absorbance shift. The ionisation curve (Bjerrum curve) was then used to determine the pH where exactly 50 % of neutral and 50 % of ionised species was present. DDD806905 must be fully dissolved throughout the titration and so the titration is set to start at the pH where DDD806905 is in its fully ionised state. The appearance of precipitate was monitored throughout the experiment by a turbidity sensing device. […] The pKas of DDD806905 was determined at the pH where there was maximal change in UV absorbance with respect to pH. […]
LogD7.4 values were quantified using a Sirius T3 instrument (Sirius Analytical, U.K.). […] The instrument software calculated the pH of each data point using mass and charge balance equations and then fitted this theoretical data to the experimental data. […]

LdMetRS, sequence (A0A3Q8IBX2 entry or part of it): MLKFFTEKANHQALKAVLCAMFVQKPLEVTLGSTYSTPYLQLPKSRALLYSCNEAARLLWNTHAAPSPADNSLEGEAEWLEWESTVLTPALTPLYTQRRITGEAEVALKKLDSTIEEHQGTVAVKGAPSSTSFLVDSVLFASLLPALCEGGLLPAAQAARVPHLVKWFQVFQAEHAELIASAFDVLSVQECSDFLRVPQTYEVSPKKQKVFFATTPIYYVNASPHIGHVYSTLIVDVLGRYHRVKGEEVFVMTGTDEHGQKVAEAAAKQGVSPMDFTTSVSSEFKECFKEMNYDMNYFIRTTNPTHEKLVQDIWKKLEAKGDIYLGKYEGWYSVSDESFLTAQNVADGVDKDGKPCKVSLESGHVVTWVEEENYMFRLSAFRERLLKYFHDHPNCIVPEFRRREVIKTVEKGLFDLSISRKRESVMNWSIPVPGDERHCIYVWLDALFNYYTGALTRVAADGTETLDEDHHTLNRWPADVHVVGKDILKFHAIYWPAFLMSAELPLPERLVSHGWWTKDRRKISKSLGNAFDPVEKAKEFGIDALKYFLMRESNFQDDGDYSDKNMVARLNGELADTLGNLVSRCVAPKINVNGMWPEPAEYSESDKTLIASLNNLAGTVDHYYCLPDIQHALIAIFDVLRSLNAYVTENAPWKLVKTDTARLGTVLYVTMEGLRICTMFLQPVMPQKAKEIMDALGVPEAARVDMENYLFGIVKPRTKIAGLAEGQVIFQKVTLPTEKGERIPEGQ

| IC50 ([1]; Table 1) | EC50 ([3]; Leishmania donovani, Table 1) | Structure (SMILES) | IC50 ([1]; Supplementary Table 1) | EC50 [2] | EC50 ([3]; Supplementary Table 1) | competition with lysotracker red accumulation in THP-1 lysosomes [4] |
| --- | --- | --- | --- | --- | --- | --- |
|  |  | Clc1ccc(Cl)c2[nH]c(CNCCCNc3nc4ccccc4[nH]3)cc12 [Compound 3] | 69 µM | 7.1 µM | > 50 µM |  |
|  |  | Cc1c(CNCCCNc2nc3ccccc3[nH]2)[nH]c2cc(Cl)cc(Cl)c12 [Compound 4] | 2.8 µM | 1.3 µM | 38 µM |  |
|  |  | FC(F)(F)c1cc(C(F)(F)F)c2cc(CNCCCNc3nc4ccccc4[nH]3)[nH]c2c1 [Compound 5] | 46 µM | 6.2 µM | 29 µM |  |
|  |  | COc1cccc2[nH]c(NCCCNCc3cc(Br)cc(Br)c3)nc12 [Compound 7] | 79 µM | 19 µM | > 50 µM |  |
|  |  | OCc1c(Cl)cc(Cl)cc1CNCCCNc1nc2ccccc2[nH]1 [Compound 8] | 47 µM | 33 µM | > 50 µM |  |
|  |  | COc1cc(C(F)(F)F)cc2[nH]c(CNCCCNc3nc4ccccc4[nH]3)cc12 [Compound 9] | > 100 µM | 7.8 µM | > 50 µM |  |
|  |  | COc1cc(C(F)(F)F)c2cc(CNCCCNc3nc4ccccc4[nH]3)[nH]c2c1 [Compound 10] | 4.8 µM | 6.5 µM | > 50 µM |  |
|  |  | Brc1cc(Br)c2c(c1)C(NCCCNc1nc3ncccc3[nH]1)CCN2 (stereo not shown) [Compound 11] | 0.17 µM | 0.54 µM | 6.2 µM |  |
|  |  | Cc1cc(C)c2cc(CNCCCNc3nc4ccccc4[nH]3)[nH]c2c1 [Compound 12] | 5.6 µM | 9.5 µM | > 50 µM |  |
|  |  | CCOc1c(CNCCCNc2nc3ccccc3[nH]2)cc(Br)cc1OC [Compound 13] | 37 µM | 19 µM | > 50 µM |  |
|  |  | CCOc1c(Br)cc(C)cc1CNCCCNc1nc2ccccc2[nH]1 [Compound 14] | 12 µM | 7.6 µM | > 50 µM |  |
|  |  | CCOc1c(Cl)cc(Cl)cc1CNCCCNc1nc2ccccc2[nH]1 [Compound 15] | 5.4 µM | 4.1 µM | > 50 µM |  |
|  |  | CCOc1c(Br)cc(Cl)cc1CNCCCNc1nc2ccccc2[nH]1 [Compound 16] | 5.9 µM | 4.9 µM | > 50 µM |  |
|  |  | OCCn1c(CNCCCNc2nc3ccccc3[nH]2)cc2c(Cl)cc(Cl)cc21 [Compound 17] | 0.38 µM | 0.87 µM | 19 µM |  |
| 3.3 µM | > 50 µM | O=C(NCCCNc1nc(=O)c2ccccc2[nH]1)c1cc2c(Cl)cc(Cl)cc2[nH]1 [Compound 25] |  |  |  |  |
| 0.74 µM | 38 µM | O=c1nc(NCCCNCc2cc(Cl)cc(Cl)c2)[nH]c2ccccc12 [Compound 26] |  |  |  |  |
| 2.8 µM | 22 µM | O=C(CCNc1nc(=O)c2ccccc2[nH]1)NCc1cc(Cl)cc(Cl)c1 [Compound 27] |  |  |  |  |
| > 100 µM | > 50 µM | O=c1nc(NCCCCCc2cc(Cl)cc(Cl)c2)[nH]c2ccccc12 [Compound 29] |  |  |  |  |
| 0.03 µM | 18 µM | CN(CCCNc1nc(=O)c2ccccc2[nH]1)Cc1cc2c(Cl)cc(Cl)cc2[nH]1 [Compound 30] |  |  |  |  |
| 22 µM | > 50 µM | O=c1nc(OCCCNCc2cc3c(Cl)cc(Cl)cc3[nH]2)[nH]c2ccccc12 [Compound 31] |  |  |  |  |
|  |  | CCN(CC)CCCC(C)Nc1ccnc2cc(Cl)ccc12 (stereo not shown) [chloroquine, reference compound] |  |  |  | did compete with lysotracker red accumulation |
